According to the NIST ThermoML archive (doi:10.1021/acs.jced.5b00369):

Experiment: relative permittivity at zero frequency (dimensionless); xn = mol fraction of the nth substance listed
Settings: 298.15 K, 101 kPa, Liquid

CCC[N+](=O)[O-] [1-nitropropane] + C1CCCCC1
two-cell dielectric cell
Settings | relative permittivity at zero frequency
x1 = 0.003184 | 2.05488
x1 = 0.006527 | 2.09539
x1 = 0.01302 | 2.1734
x1 = 0.01942 | 2.24959
x1 = 0.02574 | 2.3244
x1 = 0.02693 | 2.33815
x1 = 0.02818 | 2.3525
x1 = 0.03015 | 2.37603
x1 = 0.03648 | 2.4508
x1 = 0.04272 | 2.52479
x1 = 0.04887 | 2.59808
x1 = 0.05327 | 2.64994
x1 = 0.05626 | 2.68544
x1 = 0.0594 | 2.72327
x1 = 0.06549 | 2.79734
x1 = 0.07152 | 2.87045
x1 = 0.07893 | 2.96124

CCC[N+](=O)[O-] [1-nitropropane] + Cc1ccc(C)cc1
two-cell dielectric cell
Settings | relative permittivity at zero frequency
x1 = 0.005128 | 2.31627
x1 = 0.007441 | 2.34224
x1 = 0.01482 | 2.4248
x1 = 0.0221 | 2.50652
x1 = 0.02927 | 2.58754
x1 = 0.03246 | 2.62349
x1 = 0.03388 | 2.63942
x1 = 0.03604 | 2.66416
x1 = 0.03819 | 2.68861
x1 = 0.04527 | 2.77022
x1 = 0.05226 | 2.85114
x1 = 0.05913 | 2.93159

CCC[N+](=O)[O-] [1-nitropropane] + ClC(Cl)(Cl)Cl
two-cell dielectric cell
Settings | relative permittivity at zero frequency
x1 = 0.002869 | 2.27091
x1 = 0.005861 | 2.3147
x1 = 0.01167 | 2.39918
x1 = 0.01742 | 2.48214
x1 = 0.0231 | 2.56405
x1 = 0.0253 | 2.59588
x1 = 0.02987 | 2.66163
x1 = 0.03553 | 2.74365
x1 = 0.04122 | 2.82491
x1 = 0.04993 | 2.95383
x1 = 0.05263 | 2.99295
x1 = 0.05816 | 3.07483
x1 = 0.06363 | 3.15625

CC(C)[N+](=O)[O-] [2-nitropropane] + C1CCCCC1
two-terminal dielectric cell
Settings | relative permittivity at zero frequency
x1 = 0.001188 | 2.0322
x1 = 0.003139 | 2.0568
x1 = 0.006442 | 2.09876
x1 = 0.009592 | 2.13855
x1 = 0.01286 | 2.18001
x1 = 0.01918 | 2.26067
x1 = 0.02225 | 2.29974
x1 = 0.0266 | 2.35434
x1 = 0.031 | 2.41041
x1 = 0.03475 | 2.45922
x1 = 0.04093 | 2.54037
x1 = 0.04703 | 2.62139
x1 = 0.05035 | 2.66577
x1 = 0.05259 | 2.69578
x1 = 0.05527 | 2.7322
x1 = 0.05838 | 2.77444
x1 = 0.06441 | 2.857
x1 = 0.07038 | 2.93937

CC(C)[N+](=O)[O-] [2-nitropropane] + CC(C)C(C)C
two-terminal dielectric cell
Settings | relative permittivity at zero frequency
x1 = 0.003786 | 1.92648
x1 = 0.007756 | 1.96704
x1 = 0.01545 | 2.04621
x1 = 0.02302 | 2.12477
x1 = 0.03047 | 2.20279
x1 = 0.03298 | 2.22897
x1 = 0.03446 | 2.24427
x1 = 0.03679 | 2.26913
x1 = 0.04419 | 2.34842
x1 = 0.0515 | 2.42769
x1 = 0.05867 | 2.50669
x1 = 0.06479 | 2.5748
x1 = 0.06604 | 2.58924
x1 = 0.06819 | 2.61329
x1 = 0.07183 | 2.65458
x1 = 0.07889 | 2.73569
x1 = 0.08584 | 2.81657
x1 = 0.09268 | 2.89729

CC(C)[N+](=O)[O-] [2-nitropropane] + Cc1ccc(C)cc1
two-terminal dielectric cell
Settings | relative permittivity at zero frequency
x1 = 0.005471 | 2.32313
x1 = 0.007307 | 2.34454
x1 = 0.01457 | 2.42922
x1 = 0.02174 | 2.51328
x1 = 0.02879 | 2.59677
x1 = 0.03194 | 2.63439
x1 = 0.03336 | 2.65058
x1 = 0.03555 | 2.67711
x1 = 0.04256 | 2.76165
x1 = 0.04948 | 2.84581
x1 = 0.05628 | 2.92956
x1 = 0.06235 | 3.00461

CC(C)[N+](=O)[O-] [2-nitropropane] + ClC(Cl)(Cl)Cl
two-terminal dielectric cell
Settings | relative permittivity at zero frequency
x1 = 0.001006 | 2.24531
x1 = 0.002745 | 2.27181
x1 = 0.00569 | 2.31696
x1 = 0.01141 | 2.40482
x1 = 0.01707 | 2.49201
x1 = 0.02266 | 2.57869
x1 = 0.02488 | 2.61322
x1 = 0.02599 | 2.62967
x1 = 0.02803 | 2.6614
x1 = 0.03078 | 2.70432
x1 = 0.03634 | 2.79196
x1 = 0.04183 | 2.87937
x1 = 0.04726 | 2.9666

CC[N+](=O)[O-] [nitroethane] + C1CCCCC1
two-terminal dielectric cell
Settings | relative permittivity at zero frequency
x1 = 0.003987 | 2.0631
x1 = 0.008153 | 2.11122
x1 = 0.01622 | 2.20858
x1 = 0.02416 | 2.2932
x1 = 0.03312 | 2.3893
x1 = 0.0371 | 2.43784
x1 = 0.04487 | 2.5254
x1 = 0.05252 | 2.6119
x1 = 0.06004 | 2.69759
x1 = 0.06369 | 2.73934
